Measurements from ChEMBL document CHEMBL1201862, “PubChem BioAssay data set” (2004).
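The compound was tested at five concentrations on cells cultured in 96-well plates, with a 48-hour exposure period. GI50 is the concentration that inhibits growth by half.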 Activity calls are given as the source filed them. Rule as the data show it: active = GI50 up to about 1.1 µM and inactive = higher.

Tests used:
Experiment in all cases: NCI-60 cell line screen, 48 h
[1] = system: HT-29
[2] = system: IGROV-1
[3] = system: SF-539
[4] = system: SK-MEL-2
[5] = system: CCRF-CEM
[6] = system: NCI-H226
[7] = system: HCC 2998
[8] = system: PC-3
[9] = system: RPMI-8226
[10] = system: UACC-257
[11] = system: LOX IMVI
[12] = system: M14
[13] = system: T47D
[14] = system: COLO 205
[15] = system: NCI-H460
[16] = system: 786-0
[17] = system: SNB-75
[18] = system: A498
[19] = system: SR
[20] = system: MDA-N

| Compound | GI50 [1] | GI50 [2] | GI50 [3] | GI50 [4] | GI50 [5] | GI50 [6] | GI50 [7] | GI50 [8] | GI50 [9] | GI50 [10] | GI50 [11] | GI50 [12] | GI50 [13] | GI50 [14] | GI50 [15] | GI50 [16] | GI50 [17] | GI50 [18] | GI50 [19] | GI50 [20] |
| --- | --- | --- | --- | --- | --- | --- | --- | --- | --- | --- | --- | --- | --- | --- | --- | --- | --- | --- | --- | --- |
| CC(=O)/C(=C\NC(=S)Nc1ccc(S(N)(=O)=O)cc1)C(=O)Nc1ccccc1C | 45.2 µM (inactive) | 55.3 µM (inactive) | 74 µM (inactive) | 51.9 µM (inactive) | 16 µM (inactive) | 60.3 µM (inactive) | 54.8 µM (inactive) | 38.2 µM (inactive) | 30.3 µM (inactive) | 71.6 µM (inactive) | 20 µM (inactive) | 37.8 µM (inactive) | 28.7 µM (inactive) | 18.5 µM (inactive) | 27 µM (inactive) | 41.9 µM (inactive) |  |  |  |  |
| NS(=O)(=O)c1nnc(NC(=S)NC(=O)Nc2ccc(Cl)c(Cl)c2)s1 | 25.5 µM (inactive) | 17.2 µM (inactive) | 2.39 µM (inactive) | 31.8 µM (inactive) | 28.1 µM (inactive) | 23.9 µM (inactive) |  | 27.3 µM (inactive) | 25.8 µM (inactive) | 23.1 µM (inactive) | 17.1 µM (inactive) | 17.9 µM (inactive) |  | 19.5 µM (inactive) |  | 28.3 µM (inactive) | 17.4 µM (inactive) |  |  |  |
| CCOC(=O)C(Cc1ccc([N+](=O)[O-])cc1)NC(=O)CC1c2ccccc2-c2ccccc21 (stereo not drawn) | > 100 µM (inactive) | > 100 µM (inactive) | 27.9 µM (inactive) | 45.1 µM (inactive) | > 100 µM (inactive) | > 100 µM (inactive) | > 100 µM (inactive) |  | > 100 µM (inactive) | 24.5 µM (inactive) | > 100 µM (inactive) | 22.9 µM (inactive) |  | > 100 µM (inactive) | > 100 µM (inactive) | 39.1 µM (inactive) | 26.1 µM (inactive) | > 100 µM (inactive) | > 100 µM (inactive) |  |
| Cc1c2c(c(C)c3c1[nH]c1ccccc13)CN(C)CC2 | 16.7 µM (inactive) | 26.8 µM (inactive) | 14.2 µM (inactive) | 17.3 µM (inactive) | 49.4 µM (inactive) | 19.1 µM (inactive) | 16.7 µM (inactive) |  | 26.4 µM (inactive) | 17.2 µM (inactive) | 15.5 µM (inactive) | 15.1 µM (inactive) |  | 15 µM (inactive) | 16.5 µM (inactive) | 14.9 µM (inactive) | 13.5 µM (inactive) | 19.5 µM (inactive) | 24.8 µM (inactive) |  |
| CCOC1NC(/N=C/c2ccc(OC)cc2)=C(C#N)C1C#N (stereo not drawn) | > 100 µM (inactive) | > 100 µM (inactive) | 93.8 µM (inactive) | 29.9 µM (inactive) | 26.7 µM (inactive) | > 100 µM (inactive) | > 100 µM (inactive) | 46 µM (inactive) | 46.7 µM (inactive) | 65.5 µM (inactive) | 44.6 µM (inactive) | > 100 µM (inactive) |  | 75.3 µM (inactive) | > 100 µM (inactive) | > 100 µM (inactive) |  | > 100 µM (inactive) | 30 µM (inactive) | 49.2 µM (inactive) |
| Cc1cc(C)cc(NC(N)=S)c1 | 40.9 µM (inactive) | > 100 µM (inactive) | > 100 µM (inactive) | > 100 µM (inactive) | 19.1 µM (inactive) | > 100 µM (inactive) | > 100 µM (inactive) |  | 31.1 µM (inactive) | 36.4 µM (inactive) | 29.1 µM (inactive) | > 100 µM (inactive) |  | 26.7 µM (inactive) | > 100 µM (inactive) | 92.5 µM (inactive) | > 100 µM (inactive) | > 100 µM (inactive) | 33.5 µM (inactive) |  |
| CCOC(=O)/C(=C/c1ccc(C(F)(F)F)cc1)N(CC)CC | > 100 µM (inactive) | 47.8 µM (inactive) | > 100 µM (inactive) | 25.7 µM (inactive) | > 100 µM (inactive) | 48.4 µM (inactive) | > 100 µM (inactive) |  | > 100 µM (inactive) | 66.8 µM (inactive) | > 100 µM (inactive) | > 100 µM (inactive) |  | > 100 µM (inactive) | > 100 µM (inactive) | > 100 µM (inactive) | > 100 µM (inactive) | > 100 µM (inactive) | > 100 µM (inactive) |  |
| CN1C(=O)C(O)CC1c1ccccc1F (stereo not drawn) | > 100 µM (inactive) | > 100 µM (inactive) | > 100 µM (inactive) | > 100 µM (inactive) | > 100 µM (inactive) | > 100 µM (inactive) | > 100 µM (inactive) | > 100 µM (inactive) | > 100 µM (inactive) | > 100 µM (inactive) | > 100 µM (inactive) | > 100 µM (inactive) |  | > 100 µM (inactive) | > 100 µM (inactive) | > 100 µM (inactive) | > 100 µM (inactive) | > 100 µM (inactive) | > 100 µM (inactive) | > 100 µM (inactive) |
| O=c1oc2ccc3ccccc3c2cc1-c1nnc(-c2ccc([N+](=O)[O-])cc2)[nH]1 | > 100 µM (inactive) | 0.184 µM (active) | 18.7 µM (inactive) | 44.6 µM (inactive) | > 100 µM (inactive) |  | > 100 µM (inactive) | > 100 µM (inactive) | > 100 µM (inactive) | > 100 µM (inactive) | 38.8 µM (inactive) | > 100 µM (inactive) |  | > 100 µM (inactive) | > 100 µM (inactive) | 41.1 µM (inactive) |  | 53.6 µM (inactive) | > 100 µM (inactive) | > 100 µM (inactive) |
| O=C(O)C1Cc2[nH]cnc2CN1 (stereo not drawn) | > 100 µM (inactive) | > 100 µM (inactive) | > 100 µM (inactive) | > 100 µM (inactive) | > 100 µM (inactive) | > 100 µM (inactive) | > 100 µM (inactive) |  | > 100 µM (inactive) | > 100 µM (inactive) | > 100 µM (inactive) | > 100 µM (inactive) |  | > 100 µM (inactive) | > 100 µM (inactive) | > 100 µM (inactive) | > 100 µM (inactive) | > 100 µM (inactive) | > 100 µM (inactive) |  |
| N#Cc1c(N)[nH]c(=S)c(C#N)c1-c1cccc(Cl)c1 | 34.2 µM (inactive) | 32.9 µM (inactive) | 49.2 µM (inactive) | 20.3 µM (inactive) |  | 19.9 µM (inactive) | 15.6 µM (inactive) | 21.8 µM (inactive) | 23.8 µM (inactive) | 36.3 µM (inactive) | 39.9 µM (inactive) | 36.5 µM (inactive) |  | 15.2 µM (inactive) | 32.5 µM (inactive) | 18.6 µM (inactive) |  | 30.1 µM (inactive) | 18.6 µM (inactive) | 18.2 µM (inactive) |
| COc1ccc(N2C(=O)C3c4[nH]c5ccccc5c4C4CCCCCCC4C3C2=O)cc1 (stereo not drawn) | 23 µM (inactive) | 18.2 µM (inactive) | 7.74 µM (inactive) | 26.2 µM (inactive) | 4.12 µM (inactive) | 12.4 µM (inactive) | 11.2 µM (inactive) |  | 50.4 µM (inactive) | 38.9 µM (inactive) | 5 µM (inactive) | 11.9 µM (inactive) |  | 13.2 µM (inactive) | 7.18 µM (inactive) | 3.13 µM (inactive) | 11.9 µM (inactive) | 25.5 µM (inactive) | 6.52 µM (inactive) |  |
